In US20230049350A1, “COMPOUNDS FOR TREATING BRAIN CANCER” (Purdue Pharmaceutical Products L.P., priority 2014, published 2023):
Where two headings read alike, the source gives them in different places.

How the values were obtained:
[1] = system: A172; assay: GBM cell line viability IC50, A172; type: cell-based; conditions: Homo sapiens, A 172
Experimental: (§1) In vitro experiments were devised in which a series of GBM cell lines representative for MGMT negative and MGMT positive tumour cells were used.
(§2) Compounds: 1-100 µM EDO-S101, 1-50 µM temozolomide (TMZ), 1-50 µM temozolomide + 500 nM vorinostat, 1-40 µM bendamustine, 1-40 µM bendamustine and 500 nM vorinostat.
(§3) Twelve glioblastoma cell lines representing grade III and IV gliomas and with different expression of MGMT, drug and radiotherapy sensitivity and five patient derived glioblastoma stem, cells were used (see above). Four patient-derived glioblastoma stem cells, kindly provided from J. Gregory Cairncross, and Samuel Weiss at the Hotchkiss Brain Institute, Faculty of Medicine, University of Calgary, Calgary, Alberta, Canada and one luciferase transfected, PTC#8, from Prof Angelo Vescovi, University la Bicocca, Milan were cultured in defined culture serum free medium (SFM) and in non-adherent spheres culture. Cells were resuspended in DMEM/F12 media without serum supplemented with 20 ng/ml epidermal growth factor (Sigma-Aldrich), 20 ng/ml basic fibroblast growth factor (Sigma-Aldrich), B-27 supplement 1X (Gibco, Life Technologies), and antibiotics. Treatment with EDO-S101 was added straight after plating 3×10^3 cells in 96-well plates with the stem cells media. Spheres were counted 5 days after treatment under an inverted microscope at ×4 magnification. A sphere was counted if it had at least 15 cells.
(§4) Cells were seeded at a density of 2 × 10^4 cells/ml in 24 well plates. Cells were left to attach and grow in 5% FCS DMEM for 24 h. […] Cells trypsinized and resuspended in 1.0 ml of saline were counted using the NucleoCounterTM NC-100 (automated cell counter systems, Chemotec, Cydevang, DK) in order to evaluate cell viability. […] IC50 values were calculated by the GraFit method (Erithacus Software Limited, Staines, UK). Cell viability was measured with the 3-(4,5 dimethylthiazol-2-yl)-2,5-diphenyl tetrazolium bromide (MTT; Sigma-Aldrich) assay.
(§5) IC50 and IC20 values for all twelve cell lines against bendamustine and vorinostat were also determined as described above. […]

[2] = system: U118MG; assay: GBM cell line viability IC50, U118; type: cell-based; conditions: Homo sapiens, U-118-MG
Experimental: as §1, §2, §3, §4, §5

[3] = system: U251-luciferase; assay: Orthotopic model of U251-luciferase transfected cells; type: in vivo, mice; conditions: for mice with tumours of some grade (percent): control 72.7%
Experimental: Mice isotopically transfected with U251-luciferase in accordance with the procedure of Example 3 were treated with radiotherapy (2 Gy for 5 consecutive days), temozolomide (16 mg/kg for 5 consecutive days, po), radiotherapy and temozolomide (2 Gy for 5 consecutive days and 16 mg/kg for 5 consecutive days, po), EDO-S101 (60 mg/kg, intravenously at days 1, 8 and 15 of the treatment cycle) or control vehicle.
Intracranial tumour growth was monitored with the […] imaging system (Caliper Life Sciences, Hopkinton, MA, USA). Mice were anesthetized with 2% to 4% isofluorane (Baxter, Deerfield, IL, USA) followed by intraperitoneal injections of 150 mg/kg d-luciferin (In Vivo Imaging Solutions). Five animals were measured at the same time and the luminescent camera was set to 1 minute exposure, medium binning, 1 f/stop, blocked excitation filter, and open emission filter. The photographic camera was set to 2 s exposure, medium binning, and 8 f/stop. The field of view was set to 22 cm to capture five mice at once. Serial images were taken on a weekly basis using identical settings. Bioluminescence intensity was quantified using the Living Image software (Caliper Life Sciences).
Before any irradiation mice were anesthetized with a mixture of ketamine (25 mg/ml)/xylazine (5 mg/ml). Anesthetized tumour-bearing mice received a focal irradiation at the dose of 2 Gy for 5 consecutive days. Irradiation was delivered using an X-ray linear accelerator at a dose rate of 200 cGy/min at room temperature. All mice were shielded with a specially designed lead apparatus to allow irradiation to the […]. Mice were kept under these conditions until all irradiation finished.
All images were obtained in the transverse plane using the following sequences: transverse T2-weighted turbo spin-echo (TSE) sequence (repetition time [TR] msec/echo time [TE] msec) 6766/120, number of signal acquired 4, matrix of 192 × 192) applied with a section thickness of […], an intersection gap of 0.0 mm, and a flip angle of 160 °. The field of view was 36 × 60 mm^2, which included the tumour in its entirety with a resultant voxel size of 0.3 × 0.3 × 1.0 mm^3.
Continuous variables were summarized as mean and standard deviation (SD) or as median and 95% Cl for the median. For continuous variables not normally distributed, statistical comparisons between control and treated groups were established by carrying out the Kruskal-Wallis Tests. For continuous variables normally distributed, statistical comparisons between control and treated groups were established by carrying out the ANOVA test or by Student t test for unpaired data (for two comparisons).

[4] = system: Mz-54; assay: GBM cell line viability IC50, Mz54; type: cell-based
Experimental: as §1, §2, §3, §4, §5

[5] = system: SNB19; assay: GBM cell line viability IC50, SNB19; type: cell-based; conditions: Homo sapiens, SNB-19
Experimental: as §1, §2, §3, §4, §5

[6] = system: U138MG; assay: GBM cell line viability IC50, U138; type: cell-based; conditions: Homo sapiens, U138-MG
Experimental: as §1, §2, §3, §4, §5

[7] = system: LN228; assay: GBM cell line viability IC50, LN228/LN229; type: cell-based; conditions: Homo sapiens, LN-229
Experimental: as §1, §2, §3, §4, §5

[8] = system: U373MG (Uppsala); assay: GBM cell line viability IC50, U373; type: cell-based; conditions: Homo sapiens, U373 MG
Experimental: as §1, §2, §3, §4, §5

[9] = system: U87MG; assay: GBM cell line viability IC50, U87; type: cell-based; conditions: Homo sapiens, U-87 MG
Experimental: as §1, §2, §3, §4, §5

[10] = system: SW1783; assay: GBM cell line viability IC50, SW1783; type: cell-based; conditions: Homo sapiens
Experimental: as §1, §2, §3, §4, §5

[11] = system: NCI-60 cell lines; conditions: read-out: median IC50 value; cited from earlier work
[12] = system: LN18; assay: GBM cell line viability IC50, LN18; type: cell-based; conditions: Homo sapiens, LN-18
Experimental: as §1, §2, §3, §4, §5

[13] = drug alone, 50 days after beginning of treatment

Row | SMILES | IC50 [1] [µM] | IC50 [2] [µM] | mice with tumours of some grade (percent) [3, 13] [%] | IC50 [4] [µM] | IC50 [5] [µM] | IC50 [6] [µM] | IC50 [7] [µM] | IC50 [8] [µM] | IC50 [9] [µM] | IC50 ([10]; SW1783) [µM] | IC50 [11] [µM] | IC50 [12] [µM] | further results
1 | Cn1c(CCCCCCC(=O)NO)nc2cc(N(CCCl)CCCl)ccc21 [EDO-S101] | 6.45 | 6.61 | 38.5 | 12.7 | 2.17 | 4.27 | 1.55 | 2.26 | 1.36 | 8.24 | 2.2 | 1.87 | survival probability versus radiotherapy or temozolomide ([3]; drug alone, 60 mg/kg iv days 1, 8, 15, FIG. 17): significantly greater; mice displaying a large lesion (number) [3, 13]: 1 of the 13; mice with tumours of some grade (number) ([3]; drug alone, 50 days after beginning of treatment, control 8 out of 11): 5 out of 13
2 | Cn1c(CCCC(=O)O)nc2cc(N(CCCl)CCCl)ccc21 [bendamustine] | 55 | 35 |  | 60 | 32 | 30 | 35 | 35 | 50 | 38 | 72 | 25 | 
3 | Cn1nnc2c(C(N)=O)ncn2c1=O [temozolomide] |  |  | 38.5 |  |  |  |  |  |  |  |  |  | IC50 ([1]; A172, MGMT neg., no unit in Table 2, read-out: IC50): ~100 µM; IC50 ([2]; U118MG, MGMT pos., no unit in Table 2, read-out: IC50): > 100 µM; mice displaying lesions at the end of the study (percent) ([3]; with radiotherapy 2 Gy x 5 days, temozolomide 16 mg/kg po x 5 days): 18.2%; IC50 ([4]; Mz-54, MGMT pos., no unit in Table 2, read-out: IC50): > 100 µM; IC50 ([5]; SNB19, MGMT neg., no unit in Table 2, read-out: IC50): > 100 µM; IC50 ([6]; U138MG, MGMT pos., no unit in Table 2, read-out: IC50): > 100 µM; IC50 ([7]; LN228, MGMT neg., no unit in Table 2, read-out: IC50): > 100 µM; IC50 ([8]; U373MG (Uppsala), MGMT neg., no unit in Table 2, read-out: IC50): 80 µM; IC50 ([9]; MGMT negative U87G glioblastoma cell line, read-out: IC50): 20 µM; IC50 ([10]; SW1783, MGMT neg., no unit in Table 2, read-out: IC50): 80 µM; IC50 ([12]; LN18, MGMT pos., no unit in Table 2, read-out: IC50): > 100 µM
